{
  "source": "ChEMBL document CHEMBL1201862",
  "about": "“PubChem BioAssay data set” (2004)",
  "assay_in_all_cases": "NCI anticancer screen, dose series, 48 h",
  "key": {"[1]": {"test_system": "SNB-19"}, "[2]": {"test_system": "COLO 205"}, "[3]": {"test_system": "NCI-H226"}, "[4]": {"test_system": "SW-620"}, "[5]": {"test_system": "HCT-15"}, "[6]": {"test_system": "KM12"}, "[7]": {"test_system": "UACC-257"}, "[8]": {"test_system": "SN12C"}, "[9]": {"test_system": "Malme-3M"}, "[10]": {"test_system": "HOP-92"}, "[11]": {"test_system": "U-251"}, "[12]": {"test_system": "HL-60"}, "[13]": {"test_system": "HCT-116"}, "[14]": {"test_system": "TK-10"}, "[15]": {"test_system": "HOP-62"}, "[16]": {"test_system": "ACHN"}, "[17]": {"test_system": "DU-145"}, "[18]": {"test_system": "A549"}, "[19]": {"test_system": "CCRF-CEM"}, "[20]": {"test_system": "HT-29"}, "[21]": {"test_system": "786-0"}, "[22]": {"test_system": "NCI/ADR-RES"}, "[23]": {"test_system": "CAKI-1"}, "[24]": {"test_system": "MDA-MB-231"}, "[25]": {"test_system": "IGROV-1"}, "[26]": {"test_system": "HCC 2998"}, "[27]": {"test_system": "MCF7"}, "[28]": {"test_system": "K562"}, "[29]": {"test_system": "NCI-H23"}, "[30]": {"test_system": "SF-295"}, "[31]": {"test_system": "LOX IMVI"}, "[32]": {"test_system": "SK-MEL-28"}, "[33]": {"test_system": "PC-3"}, "[34]": {"test_system": "SK-MEL-5"}, "[35]": {"test_system": "MOLT-4"}, "[36]": {"test_system": "M14"}, "[37]": {"test_system": "MDA-MB-435"}, "[38]": {"test_system": "MDA-N"}, "[39]": {"test_system": "SNB-75"}, "[40]": {"test_system": "A498"}, "[41]": {"test_system": "SF-539"}, "[42]": {"test_system": "SK-OV-3"}, "[43]": {"test_system": "RPMI-8226"}, "[44]": {"test_system": "UACC-62"}, "[45]": {"test_system": "OVCAR-8"}, "[46]": {"test_system": "EKVX"}, "[47]": {"test_system": "T47D"}, "[48]": {"test_system": "UO-31"}, "[49]": {"test_system": "NCI-H522"}, "[50]": {"test_system": "RXF 393"}, "[51]": {"test_system": "OVCAR-4"}, "[52]": {"test_system": "OVCAR-3"}, "[53]": {"test_system": "SK-MEL-2"}},
  "note": "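Tested at 5 concentrations; 48 h exposure; 96-well plates; endpoints linearly interpolated, else capped at highest concentration. At the GI50, growth is halved.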 Active and inactive are the calls of the source. No stated cut-off is given here; in the data, active = GI50 up to about 1.1 µM and inactive = higher.",
  "data": [
    {"compound": "O=C(NCCCl)Nc1cccnc1", "values": [
      {"measurement": "GI50", "setting": "[1]", "result": "41.4 µM (inactive)"},
      {"measurement": "GI50", "setting": "[2]", "result": "24.7 µM (inactive)"},
      {"measurement": "GI50", "setting": "[3]", "result": "15.7 µM (inactive)"},
      {"measurement": "GI50", "setting": "[4]", "result": "50.7 µM (inactive)"},
      {"measurement": "GI50", "setting": "[5]", "result": 22.3, "unit": "µM"},
      {"measurement": "GI50", "setting": "[6]", "result": "13.8 µM (inactive)"},
      {"measurement": "GI50", "setting": "[7]", "result": "8 µM (inactive)"},
      {"measurement": "GI50", "setting": "[8]", "result": "21.5 µM (inactive)"},
      {"measurement": "GI50", "setting": "[9]", "result": "2.62 µM (inactive)"},
      {"measurement": "GI50", "setting": "[10]", "result": "19.9 µM (inactive)"},
      {"measurement": "GI50", "setting": "[11]", "result": "16.7 µM (inactive)"},
      {"measurement": "GI50", "setting": "[12]", "result": "49.3 µM (inactive)"},
      {"measurement": "GI50", "setting": "[13]", "result": "13.8 µM (inactive)"},
      {"measurement": "GI50", "setting": "[14]", "result": "11.2 µM (inactive)"},
      {"measurement": "GI50", "setting": "[15]", "result": "34.4 µM (inactive)"},
      {"measurement": "GI50", "setting": "[16]", "result": "13.6 µM (inactive)"},
      {"measurement": "GI50", "setting": "[17]", "result": "15.4 µM (inactive)"},
      {"measurement": "GI50", "setting": "[18]", "result": "31.6 µM (inactive)"},
      {"measurement": "GI50", "setting": "[19]", "result": "33.7 µM (inactive)"},
      {"measurement": "GI50", "setting": "[20]", "result": "18.4 µM (inactive)"},
      {"measurement": "GI50", "setting": "[21]", "result": "16.9 µM (inactive)"},
      {"measurement": "GI50", "setting": "[22]", "result": "21 µM (inactive)"},
      {"measurement": "GI50", "setting": "[23]", "result": "21.5 µM (inactive)"},
      {"measurement": "GI50", "setting": "[24]", "result": "17.4 µM (inactive)"},
      {"measurement": "GI50", "setting": "[25]", "result": "13.6 µM (inactive)"},
      {"measurement": "GI50", "setting": "[26]", "result": "17.7 µM (inactive)"},
      {"measurement": "GI50", "setting": "[27]", "result": "41.3 µM (inactive)"},
      {"measurement": "GI50", "setting": "[28]", "result": "50 µM (inactive)"},
      {"measurement": "GI50", "setting": "[29]", "result": "17.5 µM (inactive)"},
      {"measurement": "GI50", "setting": "[30]", "result": "30 µM (inactive)"},
      {"measurement": "GI50", "setting": "[31]", "result": "19.3 µM (inactive)"},
      {"measurement": "GI50", "setting": "[32]", "result": "21.2 µM (inactive)"},
      {"measurement": "GI50", "setting": "[33]", "result": "31.4 µM (inactive)"},
      {"measurement": "GI50", "setting": "[34]", "result": "5.19 µM (inactive)"},
      {"measurement": "GI50", "setting": "[35]", "result": "33 µM (inactive)"},
      {"measurement": "GI50", "setting": "[36]", "result": "17.6 µM (inactive)"},
      {"measurement": "GI50", "setting": "[37]", "result": "24.5 µM (inactive)"},
      {"measurement": "GI50", "setting": "[38]", "result": "12.8 µM (inactive)"},
      {"measurement": "GI50", "setting": "[39]", "result": "29.6 µM (inactive)"},
      {"measurement": "GI50", "setting": "[40]", "result": "24.7 µM (inactive)"},
      {"measurement": "GI50", "setting": "[41]", "result": "31.3 µM (inactive)"},
      {"measurement": "GI50", "setting": "[42]", "result": "20.6 µM (inactive)"},
      {"measurement": "GI50", "setting": "[43]", "result": "2.84 µM (inactive)"},
      {"measurement": "GI50", "setting": "[44]", "result": "15.3 µM (inactive)"},
      {"measurement": "GI50", "setting": "[45]", "result": "12.4 µM (inactive)"},
      {"measurement": "GI50", "setting": "[46]", "result": "14.1 µM (inactive)"},
      {"measurement": "GI50", "setting": "[47]", "result": "35.7 µM (inactive)"},
      {"measurement": "GI50", "setting": "[48]", "result": "22.3 µM (inactive)"},
      {"measurement": "GI50", "setting": "[49]", "result": "25.6 µM (inactive)"},
      {"measurement": "GI50", "setting": "[50]", "result": "951 nM (active)"},
      {"measurement": "GI50", "setting": "[51]", "result": "43.1 µM (inactive)"},
      {"measurement": "GI50", "setting": "[52]", "result": "26.5 µM (inactive)"},
      {"measurement": "GI50", "setting": "[53]", "result": "29 µM (inactive)"}
    ]}
  ]
}
